Laboratory results as given in patent US9717678B2, “Delivery systems for improving oral bioavailability of Fenobam, its hydrates, and salts” (MURTY PHARMACEUTICALS, INC., priority 2011, dated 2017).
In brackets after ≈: the same amount, converted by molar mass.

Test: Equilibrium solubility by HPLC
Format: physicochemical
[1] = comparative equilibrium solubility (Table 2), solvent 0.1 N HCl
[2] = comparative equilibrium solubility (Table 2), solvent PEG 400
[3] = comparative equilibrium solubility (Table 2), solvent Phosphate Buffer, pH 7.4

Row | Structure (SMILES) | Solubility [1] | Solubility [2] | Solubility [3] | Solubility (equilibrium solubility, solvent 0.1 N HCl) | Solubility (equilibrium solubility, solvent 10% Cremophor RH 40) | Solubility (equilibrium solubility, solvent 10% Polysorbate 80) | Solubility (equilibrium solubility, solvent 20% Polyethylene Glycol (PEG) 400) | Solubility (equilibrium solubility, solvent 20% Propylene Glycol) | Solubility (equilibrium solubility, solvent 30% HP-Beta-Cyclodextrin) | Solubility (equilibrium solubility, solvent Acetate Buffer, pH 4.0) | Solubility (equilibrium solubility, solvent Ethanol) | Solubility (equilibrium solubility, solvent Phosphate Buffer, pH 7.4) | Solubility (equilibrium solubility, solvent Polyethylene Glycol (PEG) 400) | Solubility (equilibrium solubility, solvent Propylene Glycol)
1 | CN1CC(=O)NC1=NC(=O)Nc1cccc(Cl)c1 [Fenobam] | 392 µg/mL (≈ 1470 µM) | 24400 µg/mL (≈ 91500 µM) | 33 µg/mL (≈ 124 µM) | 392 µg/mL (≈ 1470 µM) | 643 µg/mL (≈ 2410 µM) | 1190 µg/mL (≈ 4460 µM) | 124 µg/mL (≈ 465 µM) | 65 µg/mL (≈ 244 µM) | 2190 µg/mL (≈ 8210 µM) | 25 µg/mL (≈ 93.7 µM) | 2900 µg/mL (≈ 10900 µM) | 33 µg/mL (≈ 124 µM) | 24400 µg/mL (≈ 91500 µM) | 4460 µg/mL (≈ 16700 µM)
2 | CN1CC(=O)N=C1NC(=O)Nc1cccc(Cl)c1.O=S(=O)(O)O [Fenobam Sulfate] | 303 µg/mL | 5650 µg/mL | 27 µg/mL |  |  |  |  |  |  |  |  |  |  | 
3 | CN1CC(=O)N/C1=N\C(=O)Nc1cccc(Cl)c1.O [Fenobam Monohydrate] | 308 µg/mL | 34500 µg/mL | 39 µg/mL |  |  |  |  |  |  |  |  |  |  | 
